The subject of test [1] is RoundUp Ready GLXMA (HT variety soybean). In words: Greenhouse evaluation of broadleaf volunteer crop control, RoundUp ready soybean. Format: in vivo, Glycine max. The following applies: Glycine max, 504 h, read-out: Average Percent Crop Control after Treatment, RoundUp Ready GLXMA. How it is done: (§1) Test plants were grown in METRO-MIX® 360 (SunGro Horticulture, Bellevue, Wash.) in 132.7 square centimeters (cm^2) plastic pots for 7-21 days in a greenhouse with an approximate 15 hour (h) photoperiod which was maintained at about 23-29° C. during the day and 22-28° C. during the night. Plants were grown to the 2 to 3 leaf stage prior to applications. Both conventional soybean crops varieties, Maverick and Resnick, and herbicide resistant (HT) varieties AAD12, AAD1, and ROUNDUP® ready soybean crops were treated.
(§2) A weighed amount, determined by the highest rate to be tested, of each test compound was placed in a 25 milliliter (mL) glass vial and was dissolved in 4 mL of a 97:3 v/v (volume/volume) mixture of acetone and dimethyl sulfoxide (DMSO), which will be referred to as General Purpose Solvent (GPS), to obtain concentrated stock solutions. […] The concentrated stock solutions obtained were diluted with 20 mL of an aqueous mixture containing water, GPS, isopropyl alcohol, ATPLUS® 411F crop oil concentrate, and TRITON® X-155 surfactant in a 46:42:12:1.0:0.02 v/v ratio to obtain spray solutions containing the highest application rates. Additional application rates were obtained by serial dilution of 12 mL of the high rate solution into a solution containing 2 mL of 97:3 v/v (volume/volume) mixture of acetone and dimethyl sulfoxide (DMSO) and 10 mL of an aqueous mixture containing water, GPS, isopropyl alcohol, ATPLUS® 411F crop oil concentrate, and TRITON® X-155 surfactant in a 46:42:12:1.0:0.02 v/v ratio to obtain 1/2X, 1/4X, 1/8X and 1/16X rates of the high rate (X). Compound requirements are based upon a 12 mL application volume at a rate of 187 L/ha. Formulated compounds were applied to the plant material with an overhead Mandel track sprayer equipped with 8002E nozzles calibrated to deliver 187 L/ha over an application area of 0.503 square meters (m^2) at a spray height of 18 inches (43 cm) above the average plant canopy height. Control plants were sprayed in the same manner with the solvent blank. The treated plants and control plants were placed in a greenhouse as described above and watered by sub-irrigation to prevent wash-off of the test compounds. After 21 days, the condition of the test plants as compared with that of the control plants was determined visually and scored on a scale of 0 to 100 percent where 0 corresponds to no injury and 100 corresponds to complete kill, and results are listed in Table 1 along with active ingredients and their respective formulations. Each score in Table 1 represents an average obtained from results of three representative experiments.
(§3) Additional formulations with different 6-arylpicolinates were tested in the greenhouse on Maverick and RoundUp-ready soybean crops using the procedure described above. Each score in Table 2 represents an average obtained from results of three representative experiments.

Test [2] relates to Maverick GLXMA (conventional soybean). Nature of the test: Greenhouse evaluation of broadleaf volunteer crop control, Maverick soybean. The settings on record: Glycine max, 504 h, read-out: Average Percent Crop Control after Treatment, Maverick GLXMA. The class given is in vivo, Glycine max. How it is done: as §1, §2, §3
Where [3] appears, read: 1.1 g ae/ha, greenhouse, 2 to 3 leaf stage, after 21 days, 0 no injury, 100 complete kill.
[4] abbreviates: 2.2 g ae/ha, greenhouse, 2 to 3 leaf stage, after 21 days, 0 no injury, 100 complete kill.
Setting [5] is: 4.4 g ae/ha, greenhouse, 2 to 3 leaf stage, after 21 days, 0 no injury, 100 complete kill.
The mark [6] stands for this setting: 8.75 g ae/ha, greenhouse, 2 to 3 leaf stage, after 21 days, 0 no injury, 100 complete kill.
The mark [7] stands for this setting: 17.5 g ae/ha, greenhouse, 2 to 3 leaf stage, after 21 days, 0 no injury, 100 complete kill.

Like-named read-outs stand apart in the source and are kept apart here.

On to `Cc1c(Cl)ccc(-c2cc(N)c(Cl)c(C(=O)O)n2)c1F`, for which the figures for the pest or weed control at 1.1 g/ha in test [1] (setting [3]) and in test [2] (setting [3]) were 57% and 53%, respectively. For the same compound, the values for the pest or weed control at 2.2 g/ha in test [1] (setting [4]) and in test [2] (setting [4]) were 80% and 82%, respectively. Besides, the pest or weed control at 4.4 g/ha came out at 98% in test [1] (setting [5]) and 99% in test [2] (setting [5]). The pest or weed control at 8.75 g/ha in test [1] (setting [6]) and in test [2] (setting [6]) was 100% throughout. Also, the pest or weed control at 17.5 g/ha in test [1] (setting [7]) and in test [2] (setting [7]) was 100% in each case.

With `COc1c(Cl)ccc(-c2nc(C(=O)OCc3ccccc3)c(Cl)c(N)c2F)c1F`, in test [1], the pest or weed control at 1.1 g/ha came to 100%, the pest or weed control at 2.2 g/ha was determined as 100%, the pest or weed control at 4.4 g/ha is 100% and the pest or weed control at 8.75 g/ha turned out to be 100%. The pest or weed control at 17.5 g/ha in test [1] was 100%. Further, in test [2], the pest or weed control at 1.1 g/ha is 100%, the pest or weed control at 2.2 g/ha is 100%, the pest or weed control at 4.4 g/ha stood at 100% and the pest or weed control at 8.75 g/ha worked out at 100%. Besides, the pest or weed control at 17.5 g/ha in test [2] is 100%.

For the compound `Nc1c(F)c(-c2ccc3c(c2)OCO3)nc(C(=O)O)c1Cl`, the pest or weed control at 1.1 g/ha in test [1] (setting [3]) worked out at 32%; in test [2] (setting [3]), 27%. The pest or weed control at 2.2 g/ha in test [1] (setting [4]) was 45%; in test [2] (setting [4]), 42%. For the same compound, the figures for the pest or weed control at 4.4 g/ha in test [1] (setting [5]) and in test [2] (setting [5]) were 73% and 58%, respectively. In addition, the pest or weed control at 8.75 g/ha came to 92% in test [1] (setting [6]) and 95% in test [2] (setting [6]). Besides, the figures for the pest or weed control at 17.5 g/ha in test [1] (setting [7]) and in test [2] (setting [7]) were 98% and 100%, respectively.

For the compound `Cc1ccc(-c2cc(N)c(Cl)c(C(=O)O)n2)cc1`, the pest or weed control at 1.1 g/ha came out at 90% in test [1] (setting [3]) and 100% in test [2] (setting [3]). Also, the pest or weed control at 2.2 g/ha in test [1] (setting [4]) and in test [2] (setting [4]) was 100% in each case. The pest or weed control at 4.4 g/ha in test [1] (setting [5]) and in test [2] (setting [5]) was 100% throughout. The pest or weed control at 8.75 g/ha in test [1] (setting [6]) and in test [2] (setting [6]) was 100% throughout. The pest or weed control at 17.5 g/ha in test [1] (setting [7]) and in test [2] (setting [7]) was 100% throughout.

`COC(=O)c1nc(-c2ccc(Cl)cc2OC)cc(N)c1Cl`: the results for the pest or weed control at 1.1 g/ha in test [1] (setting [3]) and in test [2] (setting [3]) were 95% and 98%, respectively. The pest or weed control at 2.2 g/ha in test [1] (setting [4]) amounted to 99%; in test [2] (setting [4]) it was 100%. Also, the pest or weed control at 4.4 g/ha in test [1] (setting [5]) and in test [2] (setting [5]) was 100% in each case. Besides, the pest or weed control at 8.75 g/ha in test [1] (setting [6]) and in test [2] (setting [6]) was 100% throughout. The pest or weed control at 17.5 g/ha in test [1] (setting [7]) and in test [2] (setting [7]) was 100% in each case.

`COc1c(Cl)ccc(-c2cc(N)c(Cl)c(C(=O)O)n2)c1F` [drawing 15]: the pest or weed control at 1.1 g/ha in test [1] (setting [3]) and in test [2] (setting [3]) was 100% each time. Also, the pest or weed control at 2.2 g/ha in test [1] (setting [4]) and in test [2] (setting [4]) was 100% in each case. For the same compound, the pest or weed control at 4.4 g/ha in test [1] (setting [5]) and in test [2] (setting [5]) was 100% each time. In addition, the pest or weed control at 8.75 g/ha in test [1] (setting [6]) and in test [2] (setting [6]) was 100% in each case. Also, the pest or weed control at 17.5 g/ha in test [1] (setting [7]) and in test [2] (setting [7]) was 100% in each case.

Source of the values: patent publication US10154667B2, “Broadleaf crop control with 6-arylpicoline carboxylic acids, 2-arylpyrimidine carboxylic acids, or salts or esters thereof” (Dow AgroSciences LLC, priority 2013, dated 2018).
